Experimental data published in patent publication US8916552B2, “Pharmaceutical combinations” (Astex Therapeutics Limited, priority 2006, dated 2014).
Counter-ions that a name gives are not always drawn. Like-named read-outs stand apart in the source and are kept apart here.

Assays:
[1] = Hygroscopicity and rate of solubility of salt forms of compound of formula (1); assay type: physicochemical
[2] = antitumour agent; cited from earlier work
HCT116 cell line = experiment: Anti-proliferative activity, Alamar Blue assay; assay type: cell-based; conditions: Homo sapiens, HCT-116, 72 h, read-out: IC50 against the HCT116 cell line
Protocol: The anti-proliferative activities of compounds for use in the combinations of the invention can be determined by measuring the ability of the compounds to inhibition of cell growth in a number of cell lines such as the human colon cancer cell line HCT116. […] The method is based on the ability of viable cells to reduce resazurin to its fluorescent product resorufin. […] The number of viable cells is determined by Alamar Blue assay as before. Cell lines can be obtained from the ECACC (European Collection of cell Cultures).

[3] = target: T1, Human Hsp90α N-terminal domain (Homo sapiens, UniProt P07900); experiment: Isothermal titration calorimetry (ITC) binding to Hsp90; conditions: pH 7.4
T1 construct: purification of the Human Hsp90α N-terminal domain were performed according to published methods; made in house
Protocol: The ability of the compounds for use in the combinations of the invention to bind to human Hsp90 proteins was determined using isothermal titration calorimetry.
Isothermal titration calorimetry (ITC) experiments were performed with a VP-ITC titration calorimeter (Microcal Inc., Northampton, Mass., USA). […] All solutions were filtered and degassed prior to a titration being carried out. The enthalpy change resulting from each injection of ligand was obtained through integration of the calorimetric signal. Data were analysed using Origin 7.0 (Microcal Software Inc., Northampton, Mass.). Heats of dilution were estimated using the final injections of each individual titration and subtracted before data fitting. Different ITC experimental formats were employed in order to obtain compound dissociation constants (Kd's) over a wide range of affinities. […] In this type of experiment the stoichiometry parameter (N) was locked at 1 for data fitting.

[4] = Solid-state stability of crystalline L-lactate forms of compound of formula (1); assay type: physicochemical; conditions: lactic acid salts of compound of formula (1)
Source text: The term ‘stable’ or ‘stability’ as used herein includes chemical stability and solid state (physical) stability. The term ‘chemical stability’ means that the compound can be stored in an isolated form, or in the form of a formulation in which it is provided in admixture with for example, pharmaceutically acceptable carriers, diluents or adjuvants as described herein, under normal storage conditions, with little or no chemical degradation or decomposition’ for example for a period of six months or more, more usually twelve months or more, for example eighteen months or more. ‘Solid-state stability’ means the compound can be stored in an isolated solid form, or the form of a solid formulation in which it is provided in admixture with, for example, pharmaceutically acceptable carriers, diluents or adjuvants as described herein, under normal storage conditions, with little or no solid-state transformation (e.g. hydration, dehydration, solvatisation, desolvatisation, crystallisation, recrystallisation or solid-state phase transition).

[5] = assay type: physicochemical
Source text: Samples for X-ray powder diffraction (XRPD) data collection were gently ground by marble mortar and loaded into a crystallographic capillary (from Hampton Research, Quartz or Glass Type 10, 0.4 or 0.7 mm diameter). Diffraction patterns were collected at room temperature using CuKα radiation (λ=1.5418 Å) from a Rigaku rotating anode RU3HR, Osmic blue confocal optics, ¼ c goniometer and a Rigaku HTC image plate detector. 2D Images were collected while spinning φ axis with a detector to crystal distance of 250 mm. Data collection was controlled by CrystalClear software and 2D images were converted to 1D plot (2θ vs. Intensity) by Datasqueeze (intensity averaged over the azimuthal angle 0<χ<360° for 2θ range 3-30° in 0.02° steps). In house program AstexXRP was used for manipulation and visualisation of 1D XRPD patterns.
It is nominally a tri-hydrate because there are 3 crystal water positions in the asymmetric unit, but they are not 100% occupied at room temperature and laboratory humidity. A saturated solution of form FL1 in methanol:water 9:1 was prepared at room temperature. Slow precipitation with approximately 4 volumes of acetone gave form FL2 which is stable in air.
A saturated solution of form FL1 in THF was prepared at room temperature. Slow precipitation with approximately 4 volumes of heptane gave form FL3.

PKA = conditions: data published 2002; read-out: IC50, inhibition of PKA activity; cited from earlier work
PKG = conditions: data published 2002; read-out: IC50, inhibition of PKG activity; cited from earlier work
PKC = conditions: data published 2002; read-out: IC50, inhibition of PKC activity; cited from earlier work
OVCAR-3 tumour cells = OVCAR-3 tumour cells in which PKB is amplified; concentrations of 50 and 100 microM; cited from earlier work
[6] = mice; doses 10 times more than were needed for antitumour activity; cited from earlier work
[7] = tested on: Acute Promyelocytic Leukemia (APL); conditions: cited from earlier work
[8] = tested on: P-glycoprotein-overexpressing subline of leukemic cell line CCRF-CEM; conditions: P-glycoprotein-overexpressing subline of CCRF-CEM (Chou et al. 1998); cited from earlier work
[9] = clinical studies; cited from earlier work

In the case of `CC(C)c1cc(C(=O)N2Cc3ccc(CN4CCN(C)CC4)cc3C2)c(O)cc1O` [(2,4-dihydroxy-5-isopropyl-phenyl)-[5-(4-methyl-piperazin-1-ylmethyl)-1,3-dihydro-isoindol-2-yl]-methanone L-lactate salt], the hygroscopicity [1] is reported as “non-hygroscopic” and the rate of solubility ([1]; compared with free base and other salts tested (hydrochloric acid, sulphuric acid)) is reported as “better rate of solubility than the free base and other salts tested”.

In the case of `CCN[C@H]1CO[C@@H](O[C@H]2[C@H](O[C@H]3C#C/C=C\C#C[C@]4(O)CC(=O)C(NC(=O)OC)=C3/C4=C\CSSSC)O[C@H](C)[C@@H](NO[C@H]3C[C@H](O)[C@H](SC(=O)c4c(C)c(I)c(O[C@@H]5O[C@@H](C)[C@H](O)[C@@H](OC)[C@H]5O)c(OC)c4OC)[C@@H](C)O3)[C@@H]2O)C[C@@H]1OC` [Calicheamicin], the “potency relative to adriamycin” value [2] is given as “over 1,000 times”.

`CC(C)c1cc(C(=O)N2Cc3ccccc3C2)c(O)cc1O` [Example 5, (1,3-Dihydro-isoindol-2-yl)-(2,4-dihydroxy-5-isopropyl-phenyl)-methanone] gave an IC50 (HCT116 cell line) of under 1 µM.

`CC(C)c1cc(C(=O)N2Cc3ccc(C(=O)N4CCNCC4)cc3C2)c(O)cc1O` [Example 54, (2,4-dihydroxy-5-isopropyl-phenyl)-[5-(piperazine-1-carbonyl)-1,3-dihydro-isoindol-2-yl]-methanone hydrochloride] showed an IC50 (HCT116 cell line) of under 1 µM.

For `CC(C)c1cc(C(=O)N2Cc3ccc(CN4CCN(C)CC4)cc3C2)c(O)cc1O` [Example 55, (2,4-dihydroxy-5-isopropyl-phenyl)-[5-(4-methyl-piperazin-1-ylmethyl)-1,3-dihydro-isoindol-2-yl]-methanone], the Kd [3] was under 0.1 µM.

For `CC(C)c1cc(C(=O)N2Cc3ccc(CN4CCN(C)CC4)cc3C2)c(O)cc1O` [FL1, (2,4-dihydroxy-5-isopropyl-phenyl)-[5-(4-methyl-piperazin-1-ylmethyl)-1,3-dihydro-isoindol-2-yl]-methanoneL-lactate], the “stability of crystalline form” value [4] was “stable”, the “stability of crystal form at 40° C. and 75% RH” value [5] was “stable in air and at 40 °C and 75% RH for at least one month” and the “stability of crystal form in air” value [5] was “stable in air”.

For `CC(C)c1cc(C(=O)N2Cc3ccc(CN4CCN(C)CC4)cc3C2)c(O)cc1O` [FL2, (2,4-dihydroxy-5-isopropyl-phenyl)-[5-(4-methyl-piperazin-1-ylmethyl)-1,3-dihydro-isoindol-2-yl]-methanoneL-lactate], the “stability of crystalline form” value [4] was “stable” and the “stability of crystal form in air” value [5] was “stable in air”.

With `CC(C)c1cc(C(=O)N2Cc3ccc(CN4CCN(C)CC4)cc3C2)c(O)cc1O` [FL3, (2,4-dihydroxy-5-isopropyl-phenyl)-[5-(4-methyl-piperazin-1-ylmethyl)-1,3-dihydro-isoindol-2-yl]-methanoneL-lactate] the “stability of crystalline form” value [4] was “unstable” and the “stability of crystal form in air” value ([5]; 2 days) was “transforms in air into form FL1”.

For `O=S(=O)(NCCNCC=C(c1ccccc1)c1ccccc1)c1cccc2cnccc12` [NL-71-101], the IC50 (PKA) is given as 9 µM, the IC50 (PKG) is given as 36 µM and the IC50 (PKC) is given as 104 µM. The induction of apoptosis (OVCAR-3 tumour cells) was “induced apoptosis”.

For `CCOC(=O)c1ccc2[nH]c3c(OC)c4[nH]c5ccc(C(=O)OCC)cc5c4cc3c2c1` [SR-13668], the “adverse effects in vivo” value [6] is listed as “no adverse effects”.

In the case of `CC1=C(/C=C/C(C)=C/C=C/C(C)=C/C(=O)O)C(C)(C)CCC1` [Tretinoin, all-trans retinoic acid], the “remissions induced in APL patients” value [7] is listed as 64-100%.

In the case of `C/C1=C/C[C@@H](/C(C)=C/c2csc(C)n2)OC(=O)C[C@H](O)C(C)(C)C(=O)[C@H](C)[C@@H](O)[C@@H](C)CCC1` [desoxyepothilone B], the IC50 [8] is listed as 0.017 µM.

In the case of Perifosine [KRX-0401], the half-life [9] is listed as about 100 h.
